In ChEMBL document CHEMBL2057096, “Discovery of novel 1,2,4-thiadiazole derivatives as potent, orally active agonists of sphingosine 1-phosphate receptor subtype 1 (S1P(1))” (J Med Chem, 2012):
In brackets after ≈: the same amount, converted by molar mass. Activity calls are given as the source filed them. The calls are words filed in the database; no cut-off is given here.

Legend:
[1] = target: Sphingosine 1-phosphate receptor 1 (Homo sapiens, UniProt P21453); assay: Agonist activity against S1P1 receptor by cell based FRET assay; type: functional
Chain of Sphingosine 1-phosphate receptor 1 (P21453 whole entry): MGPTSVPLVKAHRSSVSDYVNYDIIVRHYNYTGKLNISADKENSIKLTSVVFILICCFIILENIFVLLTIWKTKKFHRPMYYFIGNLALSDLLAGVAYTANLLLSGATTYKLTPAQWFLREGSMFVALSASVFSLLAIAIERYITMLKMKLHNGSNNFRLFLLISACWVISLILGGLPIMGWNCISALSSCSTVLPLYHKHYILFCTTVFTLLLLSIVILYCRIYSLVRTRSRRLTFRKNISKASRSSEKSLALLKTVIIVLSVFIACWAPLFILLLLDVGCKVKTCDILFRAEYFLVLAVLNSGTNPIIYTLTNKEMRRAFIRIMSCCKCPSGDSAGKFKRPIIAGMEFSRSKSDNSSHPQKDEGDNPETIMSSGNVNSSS

[2] = target: Sphingosine 1-phosphate receptor 3 (Homo sapiens, UniProt Q99500); assay: Agonist activity against S1P3 receptor by cell based FRET assay; type: functional
Chain of Sphingosine 1-phosphate receptor 3 (Q99500 whole entry): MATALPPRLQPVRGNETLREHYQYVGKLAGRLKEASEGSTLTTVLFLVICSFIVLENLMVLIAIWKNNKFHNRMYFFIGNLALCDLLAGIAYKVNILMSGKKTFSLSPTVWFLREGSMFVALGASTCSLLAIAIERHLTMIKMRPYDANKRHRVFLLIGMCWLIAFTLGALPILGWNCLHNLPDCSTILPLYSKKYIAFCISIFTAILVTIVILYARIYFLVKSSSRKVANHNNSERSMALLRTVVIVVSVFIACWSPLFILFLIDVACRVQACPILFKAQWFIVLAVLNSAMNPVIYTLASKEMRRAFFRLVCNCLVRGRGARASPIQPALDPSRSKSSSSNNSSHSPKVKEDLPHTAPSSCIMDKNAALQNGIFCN

[3] = Permeability of the compound; type: ADME; settings: not told; read-out: permeability
Cytochrome P450 1A2 = target: T1, Cytochrome P450 1A2 (Homo sapiens, UniProt P05177); assay: Inhibition of CYP1A2; type: ADME
T1 sequence (P05177 whole entry): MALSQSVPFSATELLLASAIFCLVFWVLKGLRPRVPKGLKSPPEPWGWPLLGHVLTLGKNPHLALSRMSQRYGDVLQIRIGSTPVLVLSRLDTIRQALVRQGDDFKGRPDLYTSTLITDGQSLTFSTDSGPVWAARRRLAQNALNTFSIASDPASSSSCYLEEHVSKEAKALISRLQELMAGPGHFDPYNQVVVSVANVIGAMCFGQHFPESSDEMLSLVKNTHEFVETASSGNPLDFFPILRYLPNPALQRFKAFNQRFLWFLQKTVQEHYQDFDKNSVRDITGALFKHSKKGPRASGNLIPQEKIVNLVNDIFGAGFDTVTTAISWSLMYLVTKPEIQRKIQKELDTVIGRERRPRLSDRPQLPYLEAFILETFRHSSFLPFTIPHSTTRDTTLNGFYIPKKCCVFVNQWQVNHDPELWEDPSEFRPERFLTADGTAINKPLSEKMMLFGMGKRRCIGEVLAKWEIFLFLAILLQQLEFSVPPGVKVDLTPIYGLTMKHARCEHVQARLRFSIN

[4] = Solubility of the compound; type: physicochemical
Cytochrome P450 2C9 = Cytochrome P450 2C9 (Homo sapiens, UniProt P11712); assay: Inhibition of CYP2C9; type: ADME
Chain of Cytochrome P450 2C9 (P11712 whole entry): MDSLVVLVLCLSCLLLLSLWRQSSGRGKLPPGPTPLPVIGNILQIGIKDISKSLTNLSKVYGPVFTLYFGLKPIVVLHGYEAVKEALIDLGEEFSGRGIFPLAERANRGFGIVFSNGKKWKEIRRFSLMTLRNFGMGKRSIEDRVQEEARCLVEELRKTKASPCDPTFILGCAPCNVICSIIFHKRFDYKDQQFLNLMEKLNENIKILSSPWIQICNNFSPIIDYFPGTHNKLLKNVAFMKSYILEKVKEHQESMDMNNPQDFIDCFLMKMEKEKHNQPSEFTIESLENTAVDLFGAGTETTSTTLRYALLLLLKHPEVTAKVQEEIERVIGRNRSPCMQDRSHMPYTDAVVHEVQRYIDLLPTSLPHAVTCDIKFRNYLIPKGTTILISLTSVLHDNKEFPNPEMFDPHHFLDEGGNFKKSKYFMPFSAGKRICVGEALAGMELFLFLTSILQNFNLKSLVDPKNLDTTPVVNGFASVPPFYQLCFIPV

Cytochrome P450 2D6 = Cytochrome P450 2D6 (Homo sapiens, UniProt P10635); assay: Inhibition of CYP2D6; type: ADME
Chain of Cytochrome P450 2D6 (P10635 whole entry): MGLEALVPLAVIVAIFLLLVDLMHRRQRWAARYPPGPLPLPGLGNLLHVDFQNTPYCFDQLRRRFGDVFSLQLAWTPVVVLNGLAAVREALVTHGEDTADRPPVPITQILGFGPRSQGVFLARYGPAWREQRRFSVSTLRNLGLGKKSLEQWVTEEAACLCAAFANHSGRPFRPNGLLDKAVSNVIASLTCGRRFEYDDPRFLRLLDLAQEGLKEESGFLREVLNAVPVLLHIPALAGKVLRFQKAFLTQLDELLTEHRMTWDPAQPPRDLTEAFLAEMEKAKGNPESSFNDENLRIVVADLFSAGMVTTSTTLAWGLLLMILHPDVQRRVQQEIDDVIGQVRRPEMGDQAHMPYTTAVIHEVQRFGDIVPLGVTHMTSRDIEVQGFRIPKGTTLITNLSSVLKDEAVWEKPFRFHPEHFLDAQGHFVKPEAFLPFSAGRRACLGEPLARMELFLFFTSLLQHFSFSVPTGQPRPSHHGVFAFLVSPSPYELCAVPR

Cytochrome P450 3A4 = Cytochrome P450 3A4 (Homo sapiens, UniProt P08684); assay: Inhibition of CYP3A4; type: ADME
Chain of Cytochrome P450 3A4 (P08684 whole entry): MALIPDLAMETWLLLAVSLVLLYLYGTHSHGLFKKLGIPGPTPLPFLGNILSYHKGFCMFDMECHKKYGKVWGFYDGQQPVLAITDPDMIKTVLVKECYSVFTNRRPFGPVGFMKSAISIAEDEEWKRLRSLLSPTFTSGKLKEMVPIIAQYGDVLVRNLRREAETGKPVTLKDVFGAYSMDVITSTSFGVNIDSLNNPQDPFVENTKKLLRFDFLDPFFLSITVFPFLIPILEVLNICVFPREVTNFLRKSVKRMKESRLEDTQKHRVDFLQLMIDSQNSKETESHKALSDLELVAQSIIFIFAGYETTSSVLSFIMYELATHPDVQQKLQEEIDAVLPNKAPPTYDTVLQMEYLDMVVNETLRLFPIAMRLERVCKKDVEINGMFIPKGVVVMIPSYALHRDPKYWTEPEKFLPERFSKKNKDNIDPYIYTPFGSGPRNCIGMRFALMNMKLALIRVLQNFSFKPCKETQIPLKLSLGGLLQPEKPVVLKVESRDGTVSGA

[5] = Percentage unbound in human plasma; type: ADME, cell-free
[6] = Ratio of drug level in brain to blood in C57BL/6 mouse at 2 mg/kg, ip after 1 hr; type: ADME, organism-based; parameters: dose 2 mg/kg, route intraperitoneal
[7] = Ratio of drug level in brain to blood in C57BL/6 mouse at 2 mg/kg, ip after 4 hrs; type: ADME, organism-based; parameters: dose 2 mg/kg, route intraperitoneal
[8] = Half life in mouse; type: ADME, organism-based; settings: in vivo
[9] = Oral bioavailability in mouse; type: ADME, organism-based; settings: in vivo
[10] = AUC (0 to 24 hrs) in mouse; type: ADME, organism-based; parameters: time < 24 hr; settings: plasma
Mus musculus [11] = assay: Decrease in lymphocyte count in mouse acute lymphopenia model at 1 mg/kg, po after 4 hrs by flow cytometry relative to base line; type: functional; parameters: scale not given: the % may be the effect or the level left
Mus musculus [12] = assay: Decrease in lymphocyte count in mouse acute lymphopenia model at 1 mg/kg, po after 24 hrs by flow cytometry relative to base line; type: functional; parameters: scale not given: the % may be the effect or the level left
Mus musculus [13] = assay: Antiinflammatory activity in C57BL/6 mouse EAE model assessed as decrease in clinical symptoms at 1 mg/kg, po administered qd after 10 days post immunization; type: functional, organism-based; parameters: dose 1 mg/kg
Cytochrome P450 2C19 = Cytochrome P450 2C19 (Homo sapiens, UniProt P33261); assay: Inhibition of CYP2C19; type: ADME
Chain of Cytochrome P450 2C19 (P33261 whole entry): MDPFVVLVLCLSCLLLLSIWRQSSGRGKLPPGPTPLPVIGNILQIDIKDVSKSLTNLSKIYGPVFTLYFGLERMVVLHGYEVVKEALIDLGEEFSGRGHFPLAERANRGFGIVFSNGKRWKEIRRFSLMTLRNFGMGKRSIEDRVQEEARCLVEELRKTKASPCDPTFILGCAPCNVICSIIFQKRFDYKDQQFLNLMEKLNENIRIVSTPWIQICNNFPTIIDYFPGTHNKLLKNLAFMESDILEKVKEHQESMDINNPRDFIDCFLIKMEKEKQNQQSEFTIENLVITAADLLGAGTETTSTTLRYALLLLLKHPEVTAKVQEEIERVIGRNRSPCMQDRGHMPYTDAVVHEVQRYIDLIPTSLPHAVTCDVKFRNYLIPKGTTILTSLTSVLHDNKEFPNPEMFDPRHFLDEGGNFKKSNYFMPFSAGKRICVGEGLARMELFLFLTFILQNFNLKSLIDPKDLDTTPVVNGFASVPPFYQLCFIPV

[14] = Oral bioavailability in Sprague-Dawley rat at 2 mg/kg; type: ADME, organism-based; settings: in vivo
[15] = Half life in Sprague-Dawley rat at 1 mg/kg, iv and 2 mg/kg, po; type: ADME, organism-based; settings: in vivo
[16] = Stability of the compound assessed as glutathione adduct formation; type: physicochemical
Rattus norvegicus [17] = assay: Antiinflammatory activity in rat assessed as decrease in lymphocyte count at 1 mg/kg, po qd for 7 days relative to base line; type: functional; parameters: scale not given: the % may be the effect or the level left
Rattus norvegicus [18] = assay: Antiinflammatory activity in rat assessed as decrease in lymphocyte count at 1 mg/kg, po qd for 7 days measured after 3 days of last post dose relative to control; type: functional; parameters: scale not given: the % may be the effect or the level left
Rattus norvegicus [19] = species: Rattus norvegicus; assay: Decrease in lymphocyte count in rat; type: functional, organism-based
Rattus norvegicus [20] = species: Rattus norvegicus; assay: Decrease in lymphocyte count in rat after 60 hrs; type: functional, organism-based
Homo sapiens = species: Homo sapiens; assay: Selectivity ratio of EC50 for S1P3 receptor to EC50 for S1P1 receptor
[21] = Percentage unbound in rat plasma; type: ADME, cell-free

| EC50 [1] | EC50 [2] | Papp [3] | IC50 (Cytochrome P450 1A2) | solubility [4] | IC50 (Cytochrome P450 2C9) | IC50 (Cytochrome P450 2D6) | IC50 (Cytochrome P450 3A4) | fraction unbound [5] | Kp at 1 h [6] | Kp at 4 h [7] | half-life [8] | bioavailability [9] | IC50 (Cytochrome P450 2C19) | bioavailability [14] | half-life [15] | Stability [16] | Ratio EC50 (Homo sapiens) | Structure (SMILES) | Activity (Mus musculus [11]) | Activity (Mus musculus [12]) | other results |
| --- | --- | --- | --- | --- | --- | --- | --- | --- | --- | --- | --- | --- | --- | --- | --- | --- | --- | --- | --- | --- | --- |
| 0.00126 µM | > 10 µM | 23 ×10⁻⁶ cm/s | > 10 µM | 256 µg/mL (≈ 588 µM) | > 10 µM | > 10 µM | > 10 µM | 0.0051 | 0.21 | 0.19 | 3.8 h | 100% | – | – | – | – | – | CCc1c(CCCC(=O)O)cccc1-c1nnc(-c2ccc(OC(C)C)c(C#N)c2)s1 | 37.9% | 43.6% | AUC(0-t) at 24 h [10]: 5940 ng·h/mL; Activity (Mus musculus [13]): inactive |
| 0.000794 µM | > 3.16 µM | – | > 10 µM | – | > 10 µM | > 10 µM | > 10 µM | 0.0064 | 0.23 | 0.65 | 5.3 h | 45% | > 10 µM | 50% | 6.2 h | Stable | > 1000 | CCc1c(CCN2CCC(C(=O)O)CC2)cccc1-c1nsc(-c2ccc(CC(C)C)c(C#N)c2)n1 | 23% | 72% | Activity (Rattus norvegicus [17]): 20%; Activity (Rattus norvegicus [18]): 70%; Activity (Rattus norvegicus [19]): Dose-dependent effect; IC50 (Rattus norvegicus [19]): 0.012 µg/mL (≈ 0.0239 µM); Activity (Rattus norvegicus [20]): inactive |
| 0.000158 µM | > 3.16 µM | – | > 10 µM | – | > 10 µM | > 10 µM | > 10 µM | 0.0045 | 0.52 | 1.48 | 15.6 h | 40% | > 10 µM | 70% | 27.7 h | Stable | > 1000 | CCc1c(CCN2CCC(C(=O)O)CC2)cccc1-c1nsc(-c2ccc(OC(C)C)c(Cl)c2)n1 | 16% | 40% | – |
| 0.0002 µM | > 10 µM | 34.5 ×10⁻⁶ cm/s | > 10 µM | 46 µg/mL (≈ 110 µM) | > 10 µM | > 10 µM | > 10 µM | – | 0.53 | 0.68 | – | – | > 10 µM | – | – | – | – | CCc1c(CCCC(=O)O)cccc1-c1noc(-c2ccc(OC(C)C)c(C#N)c2)n1 | – | – | fraction unbound [21]: 0.0004 |
